Assay results from patent US20230123334A1, “AMINO LIPID COMPOUND, PREPARATION METHOD THEREFOR, AND APPLICATION THEREOF” (SHENZHEN SHENXIN BIOTECHNOLOGY CO., LTD., priority 2020, published 2023).

Tested on: HEK293 cells
Experiment: Preliminary screening as DNA vectors, GFP transfection of HEK293 cells
Assay type: cell-based
Settings: HEK293 cells; lipid/DOPE liposome with 75 ng plasmid DNA (psin-EGFP-IRES-Puro); number of cells expressing GFP divided by total number of nuclei (Hoechst)
Method in brief: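 First, amino lipid and DOPE were vortexed in sodium acetate buffer (pH 5.6) to form liposomes. Next, these were held with 75 ng EGFP plasmid at room temperature for 30 min. Finally, HEK293 cells were added, cultured at 37° C., Hoechst-stained, and GFP+/total nuclei scored by imaging.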

SMILES | Absolute DNA transfection efficiency in HEK293 cells
CCCCCCCCCCCCSc1nc(NCCN(C)C)nc(SCCCCCCCCC)n1 [Compound S9S12D1] | 14.6%
CCCCCCCCCCCCSc1nc(NCCN2CCOCC2)nc(SCCCCCCCCC)n1 [Compound S9S12D2] | 16.7%
CCCCCCCCCCCCSc1nc(NCCN2CCCCC2)nc(SCCCCCCCCC)n1 [Compound S9S12D4] | 0.0%
CCCCCCCCCCCCSc1nc(NCCN(CC)CC)nc(SCCCCCCCCC)n1 [Compound S9S12D7] | 5.3%
CCCCCCCCCCCCCCSc1nc(NCCN(C)C)nc(SCCCCCCCCC)n1 [Compound S9S14D1] | 2.1%
CCCCCCCCCCCCCCSc1nc(NCCN2CCOCC2)nc(SCCCCCCCCC)n1 [Compound S9S14D2] | 14.3%
CCCCCCCCCCCCCCSc1nc(NCCN2CCCCC2)nc(SCCCCCCCCC)n1 [Compound S9S14D4] | 7.2%
CCCCCCCCCCCCCCSc1nc(NCCN(CC)CC)nc(SCCCCCCCCC)n1 [Compound S9S14D7] | 12.5%
CCCCCCCCCCCCCCCSc1nc(NCCN(C)C)nc(SCCCCCCCCC)n1 [Compound S9S15D1] | 2.1%
CCCCCCCCCCCCCCCSc1nc(NCCN2CCOCC2)nc(SCCCCCCCCC)n1 [Compound S9S15D2] | 10.6%
CCCCCCCCCCCCCCCSc1nc(NCCN2CCCCC2)nc(SCCCCCCCCC)n1 [Compound S9S15D4] | 11.8%
CCCCCCCCCCCCCCCSc1nc(NCCN(CC)CC)nc(SCCCCCCCCC)n1 [Compound S9S15D7] | 5.0%
CCCCCCCCCCCCCCCCSc1nc(NCCN(C)C)nc(SCCCCCCCCC)n1 [Compound S9S16D1] | 0.0%

Tested on: HEK293 cells
Experiment: Preliminary screening as mRNA vectors, EGFP mRNA transfection of HEK293 cells
Assay type: cell-based
Settings: HEK293 cells, 96-well plates, EGFP mRNA 50 ng per well; percentage of GFP fluorescent cells relative to total number of cells (Hoechst)
Method in brief: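 Screening format: EGFP mRNA transfection (50 ng/well) into HEK293 in 10% FBS-supplemented DMEM. Percent green fluorescent cells, normalised to Hoechst nuclear count, gave the value; Lipofectamine2000 was the reference transfectant.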

SMILES | Absolute mRNA transfection efficiency in HEK293 cells
CCCCCCCCCCCCSc1nc(NCCN(C)C)nc(SCCCCCCCCC)n1 [Compound S9S12D1] | 0.8%
CCCCCCCCCCCCSc1nc(NCCN2CCOCC2)nc(SCCCCCCCCC)n1 [Compound S9S12D2] | 0.0%
CCCCCCCCCCCCSc1nc(NCCN2CCCCC2)nc(SCCCCCCCCC)n1 [Compound S9S12D4] | 0.6%
CCCCCCCCCCCCSc1nc(NCCN(CC)CC)nc(SCCCCCCCCC)n1 [Compound S9S12D7] | 3.4%
CCCCCCCCCCCCCCSc1nc(NCCN(C)C)nc(SCCCCCCCCC)n1 [Compound S9S14D1] | 1.6%
CCCCCCCCCCCCCCSc1nc(NCCN2CCOCC2)nc(SCCCCCCCCC)n1 [Compound S9S14D2] | 0.3%
CCCCCCCCCCCCCCSc1nc(NCCN2CCCCC2)nc(SCCCCCCCCC)n1 [Compound S9S14D4] | 0.7%
CCCCCCCCCCCCCCSc1nc(NCCN(CC)CC)nc(SCCCCCCCCC)n1 [Compound S9S14D7] | 1.5%
CCCCCCCCCCCCCCCSc1nc(NCCN(C)C)nc(SCCCCCCCCC)n1 [Compound S9S15D1] | 0.0%
CCCCCCCCCCCCCCCSc1nc(NCCN2CCOCC2)nc(SCCCCCCCCC)n1 [Compound S9S15D2] | 0.0%
CCCCCCCCCCCCCCCSc1nc(NCCN2CCCCC2)nc(SCCCCCCCCC)n1 [Compound S9S15D4] | 2.1%
CCCCCCCCCCCCCCCSc1nc(NCCN(CC)CC)nc(SCCCCCCCCC)n1 [Compound S9S15D7] | 1.2%
CCCCCCCCCCCCCCCCSc1nc(NCCN(C)C)nc(SCCCCCCCCC)n1 [Compound S9S16D1] | 0.0%

Tested on: Hela cells
Experiment: Transfection of Hela cell line, DNA vectors
Assay type: cell-based
Settings: 75 ng plasmid DNA, GFP cells / total cells
Method: 1. The compound (0.01 mmol) prepared in Example 1 was dissolved in 1 mL of anhydrous ethanol. After ultrasonically dissolved, 10 μL of the resultant amino lipid solution in ethanol was taken and mixed with 5 μL of DOPE solution in ethanol (0.01 m), and then to the obtained mixture was added 35 μL of 0.2M sodium acetate buffer (pH 5.6), and 50 μL of liposome solution was prepared by vortex at a constant rotating speed for 30 s. 4 μL was taken from the 50 μL liposome solution and added to 46 μL of 0.02M sodium acetate buffer (pH 5.6), and the final liposome solution was formed by vortex at a constant rotating speed for 30 s. 5 μL was taken from the final liposome solution and mixed with 75 ng plasmid DNA (psin-EGFP-IRES-Puro, Clontech) dissolved in 5 μL of 0.02 M sodium acetate buffer, and was allowed to stay at room temperature for 30 min to form a lipid/DNA transfection complex.
2. 10 μL of the lipid/DNA transfection complex was incubated at room temperature for 30 min, followed by addition of 90 μL of fresh resuspended cells (3-5×10^4 cells) and mixing with a pipette. 100 μL of cells+lipid/DNA complex was transferred to separate wells of a 96-well culture plate immediately, and placed in an incubator containing 5% CO2 at 37° C.
3. Hoechst33258 (Invitrogen) was added at a final concentration of 0.2 μg/mL to the cells 20 to 24 hours after initial cell transfection, and cultured in darkness at 37° C. for 15 min. Afterwards, the cells were washed once with a PBS solution, and then added with medium for culture for 20 to 24 h.
4. The cells were placed in a high-throughput confocal microscope (Molecular Devices ImageXpress), and four visual fields of the image of the cells were captured for each well, and images at three laser wavelengths were captured for each sample: bright field images of cells (FIG. 2(a) and FIG. 2(b)), Hoechst-staining images showing total nuclei (FIG. 2(c) and FIG. 2(d)) and GFP images showing success in transfection with the plasmid DNA and the expression of GFP (FIG. 2(e) and FIG. 2(f)). MetaXpress software was used to separately count the cells in the Hoechst-staining images and GFP images, and then the number of cells expressing GFP was divided by the total number of nuclei to give the absolute cell transfection efficiency. The absolute transfection efficiency was calculated as follows: […]
(§1) Cell line: Hela cells (ATCC 35241)
(§2) Medium: DMEM supplemented with 10% fetal bovine serum (Invitrogen)
(§3) Screening: cell transfection on 96-well plates
Detection (readout): percentage of the number of GFP fluorescent cells relative to the total number of cells (the total number of cells was determined using nucleus dye Hoechst). Lipofectamine2000 (Invitrogen) was used as the positive control, according to the manufacturer's instructions.
Method: the experimental method was basically the same with Example 4.

SMILES | Absolute DNA transfection efficiency in Hela cells
CCCCCCCCCCCCSc1nc(NCCN(C)C)nc(SCCCCCCCCC)n1 [Compound S9S12D1] | 7.9%
CCCCCCCCCCCCSc1nc(NCCN2CCOCC2)nc(SCCCCCCCCC)n1 [Compound S9S12D2] | 8.5%
CCCCCCCCCCCCSc1nc(NCCN2CCCCC2)nc(SCCCCCCCCC)n1 [Compound S9S12D4] | 0.0%
CCCCCCCCCCCCSc1nc(NCCN(CC)CC)nc(SCCCCCCCCC)n1 [Compound S9S12D7] | 2.7%
CCCCCCCCCCCCCCSc1nc(NCCN(C)C)nc(SCCCCCCCCC)n1 [Compound S9S14D1] | 1.4%
CCCCCCCCCCCCCCSc1nc(NCCN2CCOCC2)nc(SCCCCCCCCC)n1 [Compound S9S14D2] | 7.3%
CCCCCCCCCCCCCCSc1nc(NCCN2CCCCC2)nc(SCCCCCCCCC)n1 [Compound S9S14D4] | 3.6%
CCCCCCCCCCCCCCSc1nc(NCCN(CC)CC)nc(SCCCCCCCCC)n1 [Compound S9S14D7] | 6.5%
CCCCCCCCCCCCCCCSc1nc(NCCN(C)C)nc(SCCCCCCCCC)n1 [Compound S9S15D1] | 1.3%
CCCCCCCCCCCCCCCSc1nc(NCCN2CCOCC2)nc(SCCCCCCCCC)n1 [Compound S9S15D2] | 5.9%
CCCCCCCCCCCCCCCSc1nc(NCCN2CCCCC2)nc(SCCCCCCCCC)n1 [Compound S9S15D4] | 5.8%
CCCCCCCCCCCCCCCSc1nc(NCCN(CC)CC)nc(SCCCCCCCCC)n1 [Compound S9S15D7] | 2.8%
CCCCCCCCCCCCCCCCSc1nc(NCCN(C)C)nc(SCCCCCCCCC)n1 [Compound S9S16D1] | 0.0%

Tested on: Hela cells
Experiment: Transfection of Hela cell line, mRNA vectors
Assay type: cell-based
Settings: 50 ng EGFP mRNA per well
Method: as §1, §2, §3
Detection (readout): percentage of the number of GFP fluorescent cells relative to the total number of cells (the total number of cells was determined using nucleus dye Hoechst). A commercially available liposome transfection reagent Lipofectamine2000 (Invitrogen) was used as the positive control group, according to the manufacturer's instructions.
Method: the experimental method was basically the same with Example 4, and the mass of EGFP mRNA for transfection was 50 ng per well.

SMILES | Absolute mRNA transfection efficiency in Hela cells
CCCCCCCCCCCCSc1nc(NCCN(C)C)nc(SCCCCCCCCC)n1 [Compound S9S12D1] | 7.9%
CCCCCCCCCCCCSc1nc(NCCN2CCOCC2)nc(SCCCCCCCCC)n1 [Compound S9S12D2] | 8.5%
CCCCCCCCCCCCSc1nc(NCCN2CCCCC2)nc(SCCCCCCCCC)n1 [Compound S9S12D4] | 0.0%
CCCCCCCCCCCCSc1nc(NCCN(CC)CC)nc(SCCCCCCCCC)n1 [Compound S9S12D7] | 2.7%
CCCCCCCCCCCCCCSc1nc(NCCN(C)C)nc(SCCCCCCCCC)n1 [Compound S9S14D1] | 1.4%
CCCCCCCCCCCCCCSc1nc(NCCN2CCOCC2)nc(SCCCCCCCCC)n1 [Compound S9S14D2] | 7.3%
CCCCCCCCCCCCCCSc1nc(NCCN2CCCCC2)nc(SCCCCCCCCC)n1 [Compound S9S14D4] | 3.6%
CCCCCCCCCCCCCCSc1nc(NCCN(CC)CC)nc(SCCCCCCCCC)n1 [Compound S9S14D7] | 6.2%
CCCCCCCCCCCCCCCSc1nc(NCCN(C)C)nc(SCCCCCCCCC)n1 [Compound S9S15D1] | 1.3%
CCCCCCCCCCCCCCCSc1nc(NCCN2CCOCC2)nc(SCCCCCCCCC)n1 [Compound S9S15D2] | 5.9%
CCCCCCCCCCCCCCCSc1nc(NCCN2CCCCC2)nc(SCCCCCCCCC)n1 [Compound S9S15D4] | 5.8%
CCCCCCCCCCCCCCCSc1nc(NCCN(CC)CC)nc(SCCCCCCCCC)n1 [Compound S9S15D7] | 2.8%
CCCCCCCCCCCCCCCCSc1nc(NCCN(C)C)nc(SCCCCCCCCC)n1 [Compound S9S16D1] | 0.0%
